Here are results for 15 compounds from patent US20260297060A1, “COMPOUNDS FOR THE DEGRADATION OF MUTANT BRAF” (C4 THERAPEUTICS, INC., priority 2023, published 2026).

The subject of this test is A375-NRAS^Q61K cells. The test can be described thus: CTGlo Cell Viability Assay, A375-NRAS^Q61K (A375.11) cells, 96 hours. The format is cell-based, human. The conditions noted are these: A375.11 (A375-NRAS^Q61K) cells; for Emax: lowest % viability achieved. The procedure, abridged: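 A375 cells carrying BRAF V600E and NRAS Q61K were seeded at 250 cells/well with a 10-point half-log dose series (max 10 μM final). After 96 h at 37 °C, viability was read as ATP luminescence (CellTiter-Glo), background-subtracted and normalized to DMSO (100%). GI50 from 4-parameter fit; Emax is the lowest % viability.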

Take `CCN(C)S(=O)(=O)Nc1ccc(F)c(Oc2ccc3ncc(OC4CCN(C5CCC(c6ccc(NC7CCC(=O)NC7=O)cc6F)CC5)CC4)nc3c2)c1C#N` (single isomer, unassigned) [Compound 110, 7-[2-cyano-3-[[ethyl(methyl)sulfamoyl]amino]-6-fluoro-phenoxy]-2-[[1-[4-[4-[(2,6-dioxo-3-piperidyl)amino]-2-fluoro-phenyl]cyclohexyl]-4-piperidyl]oxy]quinoxaline]: for the setting “Homo sapiens, 96 h”, the GI50 is greater than 10000 nM and the Emax is 50 to 90%.

`CCN(C)S(=O)(=O)Nc1ccc(F)c(Oc2ccc3ncc(C4CC5(CCN(C6CCC(c7cc8c(cc7F)c(N7CCC(=O)NC7=O)nn8C)CC6)CC5)C4)nc3c2)c1C#N` (single isomer, unassigned) [Compound 180, 7-[2-cyano-3-[[ethyl(methyl)sulfamoyl]amino]-6-fluoro-phenoxy]-2-[7-[4-[3-(2,4-dioxohexahydropyrimidin-1-yl)-5-fluoro-1-methyl-indazol-6-yl]cyclohexyl]-7-azaspiro[3.5]nonan-2-yl]quinoxaline]: where the note is “Homo sapiens, 96 h”, the GI50 is less than 1000 nM and the Emax was less than 50%.

With `CCN(C)S(=O)(=O)Nc1ccc(F)c(Oc2ccc3ncn([C@H]4COC5(CCN(C6CC7(C6)CN(c6ccc(NC8CCC(=O)NC8=O)cc6F)C7)CC5)C4)c(=O)c3c2)c1C#N` (stereo partly drawn) [Compound 35, (3R)-3-[6-[2-cyano-3-[[ethyl(methyl)sulfamoyl]amino]-6-fluoro-phenoxy]-4-oxo-quinazolin-3-yl]-8-[2-[4-[(2,6-dioxo-3-piperidyl)amino]-2-fluoro-phenyl]-2-azaspiro[3.3]heptan-6-yl]-1-oxa-8-azaspiro[4.5]decane], for the setting “Homo sapiens, 96 h”, the GI50 lay in the range of 1000 to 10000 nM and the Emax fell in the range of 50 to 90%.

In the case of `CCN(C)S(=O)(=O)Nc1ccc(F)c(Oc2ccc3ncn([C@H]4COC5(CCN(C6CCC(c7ccc(N[C@@H]8CCC(=O)NC8=O)cc7F)CC6)CC5)C4)c(=O)c3c2)c1C#N` (single isomer, unassigned) [Compound 4], for the setting “Homo sapiens, 96 h”, the GI50 is less than 1000 nM and the Emax was less than 50%.

`Cn1nc(N2CCC(=O)NC2=O)c2cc(F)c(N3CC4(CC(N5CCC6(CC5)CC(n5cnc7ccc(Oc8c(F)ccc(NS(=O)(=O)C9CC9)c8C#N)cc7c5=O)C6)C4)C3)cc21` [Compound 260, N-[2-cyano-3-[3-[7-[2-[3-(2,4-dioxohexahydropyrimidin-1-yl)-5-fluoro-1-methyl-indazol-6-yl]-2-azaspiro[3.3]heptan-6-yl]-7-azaspiro[3.5]nonan-2-yl]-4-oxo-quinazolin-6-yl]oxy-4-fluoro-phenyl]cyclopropanesulfonamide]: under “Homo sapiens, 96 h”, the GI50 was less than 1000 nM and the Emax was 50 to 90%.

In turn, `CCN(C)S(=O)(=O)Nc1ccc(F)c(Oc2ccc3ncn([C@@H]4COC5(CCN(C6CCC(c7ccc(NC8CCC(=O)NC8=O)cc7F)CC6)CC5)C4)c(=O)c3c2F)c1C#N` (single isomer, unassigned) [Compound 52] yielded a GI50 greater than 10000 nM. This compound displayed an Emax (Homo sapiens, 96 h) of 50 to 90%.

Where the note is “Homo sapiens, 96 h”, `CC(C)S(=O)(=O)Nc1ccc(F)c(Oc2ccc3ncn(C4CC5(CCN(C6CCC(c7cc8c(cc7F)c(N7CCC(=O)NC7=O)nn8C)CC6)CC5)C4)c(=O)c3c2)c1C#N` (single isomer, unassigned) [Compound 95, N-[2-cyano-3-[3-[7-[4-[3-(2,4-dioxohexahydropyrimidin-1-yl)-5-fluoro-1-methyl-indazol-6-yl]cyclohexyl]-7-azaspiro[3.5]nonan-2-yl]-4-oxo-quinazolin-6-yl]oxy-4-fluoro-phenyl]propane-2-sulfonamide] yielded a GI50 of less than 1000 nM and an Emax of 50 to 90%.

In the case of `CCN(C)S(=O)(=O)Nc1ccc(F)c(Oc2ccc3ncn(C4CC5(CCN(C6CCC(c7cc8c(cc7F)c(N7CCC(=O)NC7=O)nn8C)CC6)CC5)C4)c(=O)c3c2)c1C#N` (single isomer, unassigned) [Compound 8, 6-[2-cyano-3-[[ethyl(methyl)sulfamoyl]amino]-6-fluoro-phenoxy]-3-[7-[4-[3-(2,4-dioxohexahydropyrimidin-1-yl)-5-fluoro-1-methyl-indazol-6-yl]cyclohexyl]-7-azaspiro[3.5]nonan-2-yl]-4-oxo-quinazoline], under “Homo sapiens, 96 h”, the GI50 is less than 1000 nM and the Emax was less than 50%.

In the case of `CCN(C)S(=O)(=O)Nc1ccc(F)c(Oc2ccc3ncc([C@H]4COC5(CCN(C6CCC(c7ccc(NC8CCC(=O)NC8=O)cc7F)CC6)CC5)C4)nc3c2)c1C#N` (single isomer, unassigned) [Compound 58], under “Homo sapiens, 96 h”, the GI50 is less than 1000 nM and the Emax is less than 50%.

Where the note is “Homo sapiens, 96 h”, `CN(CCO)S(=O)(=O)Nc1ccc(F)c(Oc2ccc3ncn([C@H]4COC5(CCN(C6CCC(c7ccc(NC8CCC(=O)NC8=O)cc7F)CC6)CC5)C4)c(=O)c3c2)c1C#N` (single isomer, unassigned) [Compound 76] registered a GI50 of less than 1000 nM and an Emax of less than 50%.

On to `CO[C@@H]1CCN(S(=O)(=O)Nc2ccc(F)c(Oc3ccc4ncn(C5CC6(CCN(C7CCC(c8cc9c(cc8F)c(N8CCC(=O)NC8=O)nn9C)CC7)CC6)C5)c(=O)c4c3)c2C#N)C1` (single isomer, unassigned) [Compound 101], for which, where the note is “Homo sapiens, 96 h”, the GI50 is less than 1000 nM and the Emax is less than 50%.

Under “Homo sapiens, 96 h”, `CC(C)S(=O)(=O)Nc1ccc(F)c(Oc2ccc3ncn([C@H]4COC5(CCN(C6CC7(C6)CN(c6cc8c(cc6F)c(N6CCC(=O)NC6=O)nn8C)C7)CC5)C4)c(=O)c3c2)c1C#N` [Compound 134, N-[2-cyano-3-[3-[(3R)-8-[2-[3-(2,4-dioxohexahydropyrimidin-1-yl)-5-fluoro-1-methyl-indazol-6-yl]-2-azaspiro[3.3]heptan-6-yl]-1-oxa-8-azaspiro[4.5]decan-3-yl]-4-oxo-quinazolin-6-yl]oxy-4-fluoro-phenyl]propane-2-sulfonamide] gave a GI50 of less than 1000 nM and an Emax of 50 to 90%.

For the setting “Homo sapiens, 96 h”, `Cn1nc(N2CCC(=O)NC2=O)c2cc(F)c(N3CC4(CC(N5CCC6(CC5)C[C@@H](n5cnc7ccc(Oc8c(F)ccc(NS(=O)(=O)N9CC%10(CCC%10)C9)c8C#N)cc7c5=O)CO6)C4)C3)cc21` [Compound 254, N-[2-cyano-3-[3-[(3R)-8-[2-[3-(2,4-dioxohexahydropyrimidin-1-yl)-5-fluoro-1-methyl-indazol-6-yl]-2-azaspiro[3.3]heptan-6-yl]-1-oxa-8-azaspiro[4.5]decan-3-yl]-4-oxo-quinazolin-6-yl]oxy-4-fluoro-phenyl]-2-azaspiro[3.3]heptane-2-sulfonamide] returned a GI50 of less than 1000 nM and an Emax of less than 50%.

Turning to `CCN(C)S(=O)(=O)Nc1ccc(F)c(Oc2ccc3ncn(CC4CCN(C5CCC(c6cc7c(cc6F)c(N6CCC(=O)NC6=O)nn7C)CC5)CC4)c(=O)c3c2)c1C#N` (single isomer, unassigned) [Compound 126, 6-[2-cyano-3-[[ethyl(methyl)sulfamoyl]amino]-6-fluoro-phenoxy]-3-[[1-[4-[3-(2,4-dioxohexahydropyrimidin-1-yl)-5-fluoro-1-methyl-indazol-6-yl]cyclohexyl]-4-piperidyl]methyl]-4-oxo-quinazoline], under “Homo sapiens, 96 h”, the GI50 lay within 1000 to 10000 nM and the Emax fell in the range of 50 to 90%.

As to `Cn1nc(N2CCC(=O)NC2=O)c2cc(F)c(C3CCC(N4CCC5(CC4)CC(n4cnc6ccc(Oc7c(F)ccc(NS(=O)(=O)N8CC[C@@H](F)C8)c7C#N)cc6c4=O)C5)CC3)cc21` (single isomer, unassigned) [Compound 122], where the note is “Homo sapiens, 96 h”, the GI50 is less than 1000 nM and the Emax is less than 50%.
